Measurements published in patent publication US11053204B2, “Pyrimidinyloxy benzene derivatives as herbicides” (FMC Corporation, priority 2015, dated 2021).

How the values were obtained:
Type in all cases: in vivo
[1] = test system: Italian ryegrass (Lolium multiflorum); assay: Test A preemergence, visual injury rating; conditions: for Ryegrass, Italian plant response rating: 0 to 100 scale (0 no effect, 100 complete control)
Method in brief: (§1)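 Scoring: eye-based comparison with untreated controls, 0 for no effect through 100 for complete control, at about day 10. Treatments: directed soil spray preemergence; foliar spray postemergence on 2–10 cm plants at the one- to two-leaf stage. Medium: loam soil with sand.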

[2] = test system: barnyardgrass (Echinochloa crus-galli); assay: Test A preemergence, visual injury rating; conditions: for Barnyardgrass plant response rating: 0 to 100 scale (0 no effect, 100 complete control)
Method in brief: as §1

[3] = test system: giant foxtail (Setaria faberii); assay: Test A preemergence, visual injury rating; conditions: for Foxtail, Giant plant response rating: 0 to 100 scale (0 no effect, 100 complete control)
Method in brief: as §1

kochia (Kochia scoparia) [4] = assay: Test A preemergence, visual injury rating; conditions: for Kochia plant response rating: 0 to 100 scale (0 no effect, 100 complete control)
Method in brief: as §1

[5] = test system: pigweed (Amaranthus retroflexus); assay: Test A preemergence, visual injury rating; conditions: for Pigweed plant response rating: 0 to 100 scale (0 no effect, 100 complete control)
Method in brief: as §1

[6] = test system: ragweed (common ragweed, Ambrosia elatior); assay: Test A preemergence, visual injury rating; conditions: for Ragweed plant response rating: 0 to 100 scale (0 no effect, 100 complete control)
Method in brief: as §1

[7] = test system: Italian ryegrass (Lolium multiflorum); assay: Test A postemergence, visual injury rating; conditions: 0 is no effect, 100 is complete control; for Ryegrass, Italian plant response rating: 0 to 100 scale, approximately 10 days
Method in brief: as §1

[8] = test system: barnyardgrass (Echinochloa crus-galli); assay: Test A postemergence, visual injury rating; conditions: 0 is no effect, 100 is complete control; for Barnyardgrass plant response rating: 0 to 100 scale, approximately 10 days
Method in brief: as §1

[9] = test system: blackgrass (Alopecurus myosuroides); assay: Test A postemergence, visual injury rating; conditions: 0 is no effect, 100 is complete control; for Blackgrass plant response rating: 0 to 100 scale, approximately 10 days
Method in brief: as §1

corn (Zea mays) = assay: Test A postemergence, visual injury rating; conditions: 0 is no effect, 100 is complete control; for Corn plant response rating: 0 to 100 scale, approximately 10 days
Method in brief: as §1

[10] = test system: galium (catchweed bedstraw, Galium aparine); assay: Test A postemergence, visual injury rating; conditions: 0 is no effect, 100 is complete control; for Galium plant response rating: 0 to 100 scale, approximately 10 days
Method in brief: as §1

[11] = test system: giant foxtail (Setaria faberii); assay: Test A postemergence, visual injury rating; conditions: 0 is no effect, 100 is complete control; for Foxtail, Giant plant response rating: 0 to 100 scale, approximately 10 days
Method in brief: as §1

kochia (Kochia scoparia) [12] = assay: Test A postemergence, visual injury rating; conditions: 0 is no effect, 100 is complete control; for Kochia plant response rating: 0 to 100 scale, approximately 10 days
Method in brief: as §1

[13] = test system: pigweed (Amaranthus retroflexus); assay: Test A postemergence, visual injury rating; conditions: 0 is no effect, 100 is complete control; for Pigweed plant response rating: 0 to 100 scale, approximately 10 days
Method in brief: as §1

[14] = test system: ragweed (common ragweed, Ambrosia elatior); assay: Test A postemergence, visual injury rating; conditions: 0 is no effect, 100 is complete control; for Ragweed plant response rating: 0 to 100 scale, approximately 10 days
Method in brief: as §1

[15] = test system: wheat (Triticum aestivum); assay: Test A postemergence, visual injury rating; conditions: 0 is no effect, 100 is complete control; for Wheat plant response rating: 0 to 100 scale, approximately 10 days
Method in brief: as §1

[16] = test system: barnyardgrass (Echinochloa crus-galli); assay: Test B flooded paddy test, plant response rating; conditions: 250 g ai/ha; Flood; scale of 0 to 100 where 0 is no effect and 100 is complete control; 13 to 15 days
Method in brief: (§2)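 Ratings were visual and made relative to untreated controls after 13 to 15 greenhouse days.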

[17] = test system: ducksalad (Heteranthera limosa); assay: Test B flooded paddy test, plant response rating; conditions: 250 g ai/ha; Flood; scale of 0 to 100 where 0 is no effect and 100 is complete control; 13 to 15 days
Method in brief: as §2

rice (Oryza sativa) = assay: Test B flooded paddy test, plant response rating; conditions: 250 g ai/ha; Flood; scale of 0 to 100 where 0 is no effect and 100 is complete control; 13 to 15 days
Method in brief: as §2

[18] = test system: sedge, umbrella (small-flower umbrella sedge, Cyperus difformis); assay: Test B flooded paddy test, plant response rating; conditions: 250 g ai/ha; Flood; scale of 0 to 100 where 0 is no effect and 100 is complete control; 13 to 15 days
Method in brief: as §2

[19] = 31 g ai/ha, 0 to 100 scale, 0 no effect, 100 complete control

SMILES	Ryegrass, Italian plant response rating ([1]; 125 g ai/ha)	Barnyardgrass plant response rating ([2]; 125 g ai/ha)	Foxtail, Giant plant response rating ([3]; 125 g ai/ha)	Kochia plant response rating (kochia (Kochia scoparia) [4]; 125 g ai/ha)	Pigweed plant response rating ([5]; 125 g ai/ha)	Ragweed plant response rating ([6]; 125 g ai/ha)	Ryegrass, Italian plant response rating ([7]; 125 g ai/ha)	Barnyardgrass plant response rating ([8]; 125 g ai/ha)	Blackgrass plant response rating ([9]; 125 g ai/ha)	Corn plant response rating (corn (Zea mays); 125 g ai/ha)	Galium plant response rating ([10]; 125 g ai/ha)	Foxtail, Giant plant response rating ([11]; 125 g ai/ha)	Kochia plant response rating (kochia (Kochia scoparia) [12]; 125 g ai/ha)	Pigweed plant response rating ([13]; 125 g ai/ha)	Ragweed plant response rating ([14]; 125 g ai/ha)	Wheat plant response rating ([15]; 125 g ai/ha)	Plant response rating, Barnyardgrass [16]	Plant response rating, Ducksalad [17]	Plant response rating, Rice (rice (Oryza sativa))	Plant response rating, Sedge, Umbrella [18]	further results
O=C(SCC(F)(F)F)c1c(Br)cccc1Oc1ncc(Cl)cn1 [Compound 85]	0	0	0	0	0	0	0	0	0	10	30	0	30	30	0	0	0	0	0	0	Ryegrass, Italian plant response rating ([1]; 500 g ai/ha): 0; Barnyardgrass plant response rating ([2]; 500 g ai/ha): 10; Foxtail, Giant plant response rating ([3]; 500 g ai/ha): 70; Kochia plant response rating (kochia (Kochia scoparia) [4]; 500 g ai/ha): 0; Pigweed plant response rating ([5]; 500 g ai/ha): 60; Ragweed plant response rating ([6]; 500 g ai/ha): 0; Ryegrass, Italian plant response rating (0 to 100 scale) ([7]; 500 g ai/ha): 0; Barnyardgrass plant response rating (0 to 100 scale) ([8]; 500 g ai/ha): 20; Blackgrass plant response rating (0 to 100 scale) ([9]; 500 g ai/ha): 0; Corn plant response rating (0 to 100 scale) (corn (Zea mays); 500 g ai/ha): 40; Galium plant response rating (0 to 100 scale) ([10]; 500 g ai/ha): 90; Foxtail, Giant plant response rating (0 to 100 scale) ([11]; 500 g ai/ha): 60; Kochia plant response rating (0 to 100 scale) (kochia (Kochia scoparia) [12]; 500 g ai/ha): 80; Pigweed plant response rating (0 to 100 scale) ([13]; 500 g ai/ha): 70; Ragweed plant response rating (0 to 100 scale) ([14]; 500 g ai/ha): 0; Wheat plant response rating (0 to 100 scale) ([15]; 500 g ai/ha): 20
CCCCc1c(C#N)cccc1Oc1ncc(Cl)cn1 [Compound 86]	20	90	50	100	100	0	20	40	20	30	70	30	100	40	0	40	40	100	20	100	Plant response rating, Ryegrass, Italian [1, 19]: 0; Plant response rating, Barnyardgrass [2, 19]: 0; Plant response rating, Foxtail, Giant [3, 19]: 0; Plant response rating, Kochia (kochia (Kochia scoparia) [4]; [19]): 10; Plant response rating, Pigweed [5, 19]: 20; Plant response rating, Ragweed [6, 19]: 0; Ryegrass, Italian plant response rating ([7]; 31 g ai/ha): 0; Barnyardgrass plant response rating ([8]; 31 g ai/ha): 20; Blackgrass plant response rating ([9]; 31 g ai/ha): 0; Corn plant response rating (corn (Zea mays); 31 g ai/ha): 30; Galium plant response rating ([10]; 31 g ai/ha): 30; Foxtail, Giant plant response rating ([11]; 31 g ai/ha): 10; Kochia plant response rating (kochia (Kochia scoparia) [12]; 31 g ai/ha): 90; Pigweed plant response rating ([13]; 31 g ai/ha): 30; Ragweed plant response rating ([14]; 31 g ai/ha): 0; Wheat plant response rating ([15]; 31 g ai/ha): 30
